Results published in PubChem BioAssay AID651896 (Broad Institute, 2012).

System: L-6 rat myocyte cytotoxicity, plate reader
Assay: L6 myocyte viability loss – cell-based, plate reader, cherry-pick, cytotoxicity control, dose response (AID 651896)

C[C@@H]1CN([C@@H](C)CO)C(=O)c2cccc(NC(=O)c3ccncc3)c2O[C@H]1CN(C)Cc1ccc(Oc2ccccc2)cc1
IC50: 10.8 µM
